Measured values published in paper PMC9683698 (Science Advances, 2022).

Columns and labels:
[1] = molecular target: T1, cPLA2 (cPLA2 group IVA, PLA2G4A) (Homo sapiens, UniProt P47712); experiment: biochemical
T1 construct: recombinant, expressed and purified from insect cells
T1 sequence (P47712 1-749): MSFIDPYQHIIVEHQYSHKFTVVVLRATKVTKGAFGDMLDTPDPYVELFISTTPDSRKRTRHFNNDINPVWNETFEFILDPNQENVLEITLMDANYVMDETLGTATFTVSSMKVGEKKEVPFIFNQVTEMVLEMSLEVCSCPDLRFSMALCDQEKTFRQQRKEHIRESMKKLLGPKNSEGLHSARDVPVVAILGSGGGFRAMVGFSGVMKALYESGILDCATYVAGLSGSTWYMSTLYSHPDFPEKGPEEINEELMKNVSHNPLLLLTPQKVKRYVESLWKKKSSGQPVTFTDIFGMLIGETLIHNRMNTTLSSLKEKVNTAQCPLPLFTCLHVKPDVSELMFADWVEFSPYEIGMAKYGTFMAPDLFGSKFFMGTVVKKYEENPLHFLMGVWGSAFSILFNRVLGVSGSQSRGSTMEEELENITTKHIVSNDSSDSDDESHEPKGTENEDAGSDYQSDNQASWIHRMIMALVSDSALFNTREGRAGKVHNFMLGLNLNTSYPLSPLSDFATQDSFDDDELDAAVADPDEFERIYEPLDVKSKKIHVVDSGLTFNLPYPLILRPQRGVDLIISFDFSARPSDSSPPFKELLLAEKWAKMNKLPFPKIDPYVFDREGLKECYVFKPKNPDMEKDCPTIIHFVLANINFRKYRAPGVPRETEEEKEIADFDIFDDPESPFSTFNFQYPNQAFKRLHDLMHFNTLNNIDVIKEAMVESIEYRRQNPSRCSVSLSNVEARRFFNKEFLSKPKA

[2] = molecular target: SARS-CoV S ectodomain (SARS-CoV) (UniProt P59594); experiment: […], SEC buffer 20 mM tris pH 7.5, 100 mM NaCl; […]

Row | Molecule | IC50 [1] [µM] | stoichiometry N [2]
1 | CCCCC/C=C\C/C=C\CCCCCCCC(=O)O [linoleic acid] | ~100 | –
2 | SARS-CoV S ectodomain (from UniProt P59594 14-1193) (domain or fragment) | – | 3
